# Reference: patent US20260028390A1, “ALPHA1-ANTITRYPSIN FOR USE IN THE TREATMENT OF DISEASES OR DISORDERS OF THE NERVOUS SYSTEM SUCH AS CHRONIC INFLAMMATORY DEMYELINATING POLYNEUROPATHY” (Ageronix SA, priority 2022, published 2026)
# Several values for one entry are separate records, joined by “and”; a condition that tells them apart may be missing. Equal entries are not always repeated.
# How the values were obtained:
# [1] = system: CMT1A mice B6.Cg-Tg(PMP22)C3Fbas/J; assay: Grip strength, CMT mice treated with AAT 180 mg/kg/day sc; type: in vivo, mouse; conditions: for Grip strength, group Mean: 8 animals
# Protocol: CMT MOUSE MODEL: Non-humanized CMT1A mice B6.Cg-Tg(PMP22)C3Fbas/J (three copies of the PMP22 gene), three groups of 8 animals each.
# DOSAGE: 180 mg/kg/day non-clinical grade AAT (Sigma)
# ADMINISTRATION: Subcutaneous (SC) (bi-daily injection of 90 mg/kg)
# Animals were received at 6 weeks of age and housed under controlled conditions for the duration of the study. The study comprised two groups of 8 transgenic mice (CMT mice) each and one group of 8 age matched wild type (WT) C57B16 mice, serving as positive control. […]
# (§1) The efficacy parameters included: • neuromuscular performance (rotarod latency to fall and grip strength test), • sciatic nerve electrophysiology (CMAP amplitude and NCV) • cytokine (IL-6 and TNFα), as well as NfL analysis • sciatic nerve histology (number of axons and axonal diameter),
# After the last treatment on Day 15, these tests were repeated. Animals were then left untreated for 2 additional weeks to evaluate the duration of the treatment effect. Following the 2-week treatment-free period until 12 weeks of age (Day 30), the behavioural and electrophysiological tests were repeated.
# [2] = system: C3-PMP22 transgenic mice (CMT1A); assay: Rotarod test, CMT1A mouse study (50 mg/kg twice daily); type: in vivo; conditions: for Rotarod latency, Mean/animal / Rotarod latency, set 1, individual animals / Rotarod latency, set 2, individual animals / Rotarod latency, set 3, individual animals: CMT1A + AAT; for Rotarod latency (Mean ± SEM): CMT1A mice
# Excerpt: As a murine model of CMT1A we used C3-PMP22 transgenic mice (B6.Cg-Tg(PMP22)C3Fbas/J, The Jackson Laboratory) which express three copies of a wild-type human peripheral myelin protein 22 (PMP22) gene (Verhamme, Camiel, et al. Journal of Neuropathology & Experimental Neurology 70.5 (2011): 386-398). Mice were housed in macrolon cages with filter hoods, in a continuously air-filtered room, thereby avoiding contamination. During experiments, paired animals were caged at a constant temperature with a day/night cycle of 12/12 hours. Animals were fed (control tap water and nutrition) ad libitum. Animal protocol is approved by the Animal Studies Committee of Languedoc Roussillon. This protocol and the laboratory procedures comply with French legislation, which implements the European Directives (Reference Number: D3417223, APAFIS #23920-2020020320279696 v3). Animal health was followed on a daily basis to ensure that only animals in good health enter the testing procedures and follow up the study.
# Animals were split in 3 groups (wild-type control (subcutaneous 0.9% NaCl), CMT1A-vehicle (subcutaneous 0.9% NaCl), CMT1A-human alpha-1 antitrypsin (subcutaneous, twice daily, 50 mg/kg per injection)) of 3 mice each (3 weeks old males of 18±2.5 g at the beginning of study) and all went through the following protocol after 7 days of acclimation on site.
# On the first and last day of treatment, the neuromuscular performance of animals was tested with a rotarod test, grip test and sciatic nerve electrophysiology test. After the last treatment at 8 weeks, these tests were repeated, and animals were sacrificed and the left sciatic nerve was sampled for histological evaluation of the number and size of […].
# The rotarod test measures neuromuscular coordination by assessing the capacity of the animals to stay in balance on a rotating cylinder. Similar rotarod latency was observed between groups at the baseline (6 weeks old).
# plasma NfL = assay: Plasma NfL quantification, CIDP mouse model; type: in vivo; conditions: for Plasma NfL, Mean Diff., CIDP + vehicle vs. CIDP + hAAT / Plasma NfL, Mean Diff., Sham negative control vs. CIDP + hAAT: Bonferroni's multiple comparisons test; for Plasma NfL concentration (Mean ± SD): CIDP mice; for NfL conc: per animal, listed as hAAT
# Protocol: C57BL/6 mice were received at 8 weeks of age and housed under controlled conditions for the duration of the study. Three groups of 4 animals each were assigned to the following subcutaneous treatments twice daily at 7:00 AM and 7:00 PM for 2 weeks, from 20 to 35 days after the start of disease induction: • Wild type (WT) mice receiving the vehicle, 0.9% NaCl (positive control) • CIDP mice receiving the vehicle, 0.9% NaCl (negative control) • CIDP mice receiving human AAT (AAT), 50 mg/kg per injection
# On the day preceding disease induction (Day 1), on the first (Day 20) and on the last (Day 35) treatment day, animals were subjected to blood samplings for the determination of neurofilament light chain (NfL), tumour necrosing factor alpha (TNFα) and TMPRSS5 levels, as described in FIG. 20. In addition, plasma levels of AAT were evaluated on the last treatment day.
# plasma IL-6 = assay: Plasma IL-6, CMT mice treated with AAT 180 mg/kg/day sc; type: in vivo, mouse
# Excerpt: Animals were received at 6 weeks of age and housed under controlled conditions for the duration of the study. The study comprised two groups of 8 transgenic mice (CMT mice) each and one group of 8 age matched wild type (WT) C57B16 mice, serving as positive control. Animals were assigned to the following subcutaneous treatments twice daily at 7:00 AM and 7:00 PM for 2 weeks, starting from 8 weeks and up to 10 weeks of age: • Wild-type (WT, no disease) mice receiving vehicle, 0.9% NaCl (positive control) • CMT1A mice receiving vehicle, 0.9% NaCl (negative control) • CMT1A mice receiving AAT at 90 mg/kg per injection (daily dose 180 mg/kg)
# as §1
# As supportive information for the mode of action of AAT in CMT, plasma concentration of interleukin 6 (IL-6) and TNFα were measured at Day 1 (8 weeks), Day 15 (10 weeks) and Day 30 (12 weeks). At the same timepoints, plasma levels of the biomarker of nerve damage, NfL were determined.
# [3] = 8 weeks old (baseline, Day 1), CMT1A + AAT
# [4] = 10 weeks old (Day 15, after 2 weeks AAT 90 mg/kg sc twice daily)
# [5] = 12 weeks old (Day 30, after 2-week treatment-free period)
# [6] = baseline (6 weeks old), CMT + hAAT, individual animal
substance,measurement,setting,value
alpha1-antitrypsin (AAT) protein,Grip strength (Mean ± SD),[1]; [3],3.35 ± 0.27 newtons
same,"Grip strength, group Mean","[1]; 8 weeks old, CMT + hAAT 180 mg/kg/day SC",4.81 NEWTONS
same,Grip strength (Mean ± SD),[1]; [4],5.47 ± 1.11 newtons
same,grip strength vs untreated CMT animals,"[1]; 12 weeks of age, after 2-week treatment-free period, P<0.05",significantly higher
same,Grip strength (Mean ± SD),[1]; [5],3.87 ± 0.36 newtons
same,grip strength vs CMT mice not treated with AAT,"[1]; CMT mice, AAT 90 mg/kg sc twice a day, 8 to 10 weeks of age, end of treatment",significant increase
same,"Grip strength, group Mean","[1]; baseline (6 weeks old), CMT + hAAT",5.54 NEWTONS
same,"Grip strength, Mean/animal",[1]; [6],4.96 NEWTONS and 4.77 NEWTONS and 6.79 NEWTONS and 6.72 NEWTONS and 6.41 NEWTONS and 4.74 NEWTONS and 4.27 NEWTONS and 5.68 NEWTONS
same,"Grip strength, set 1",[1]; [6],6.56 NEWTONS and 5.62 NEWTONS and 7.24 NEWTONS and 5.90 NEWTONS and 4.97 NEWTONS and 4.35 NEWTONS and 6.08 NEWTONS and 6.51 NEWTONS
same,"Grip strength, set 2",[1]; [6],3.79 NEWTONS and 4.00 NEWTONS and 7.19 NEWTONS and 8.88 NEWTONS and 7.60 NEWTONS and 6.25 NEWTONS and 2.61 NEWTONS and 3.97 NEWTONS
same,"Grip strength, set 3",[1]; [6],4.52 NEWTONS and 4.69 NEWTONS and 5.93 NEWTONS and 5.37 NEWTONS and 6.66 NEWTONS and 3.63 NEWTONS and 4.13 NEWTONS and 6.57 NEWTONS
same,"Rotarod latency, Mean/animal",[2]; 6 weeks old (baseline),84.36 s and 71.19 s and 72.91 s
same,"Rotarod latency, set 1, individual animals",[2]; 6 weeks old (baseline),85.0 s and 51.4 s and 59.6 s
same,"Rotarod latency, set 2, individual animals",[2]; 6 weeks old (baseline),102.6 s and 93.4 s and 92.1 s
same,"Rotarod latency, set 3, individual animals",[2]; 6 weeks old (baseline),65.5 s and 68.8 s and 67.1 s
same,"Rotarod latency, Mean/animal",[2]; 8 weeks old,49.76 s and 64.65 s and 56.12 s
same,"Rotarod latency, set 1, individual animals",[2]; 8 weeks old,62.1 s and 83.2 s and 46.0 s
same,"Rotarod latency, set 2, individual animals",[2]; 8 weeks old,35.7 s and 39.5 s and 46.0 s
same,"Rotarod latency, set 3, individual animals",[2]; 8 weeks old,51.5 s and 71.3 s and 76.4 s
same,rotarod latency compared to the control group,"[2]; CMT1A mice treated with AAT, 8 weeks old",improvement
same,Rotarod latency (Mean ± SEM),[2]; 6 weeks old (baseline),76.15 ± 4.13 s
same,Rotarod latency (Mean ± SEM),"[2]; 8 weeks old, AAT 50 mg/kg sc twice daily",56.84 ± 4.31 s
same,"Plasma NfL, Mean Diff., CIDP + vehicle vs. CIDP + hAAT",plasma NfL; Day 1,0.04828
same,"Plasma NfL, Mean Diff., Sham negative control vs. CIDP + hAAT",plasma NfL; Day 1,0.01878
same,"Plasma NfL, Mean Diff., CIDP + vehicle vs. CIDP + hAAT",plasma NfL; Day 20,0.2088
same,"Plasma NfL, Mean Diff., Sham negative control vs. CIDP + hAAT",plasma NfL; Day 20,-2.85 ng/mL
same,"Plasma NfL, Mean Diff., CIDP + vehicle vs. CIDP + hAAT",plasma NfL; Day 35,1.01 ng/mL
same,"Plasma NfL, Mean Diff., Sham negative control vs. CIDP + hAAT",plasma NfL; Day 35,-1.88 ng/mL
same,plasma NfL concentration compared to the CIDP+vehicle treated group,"plasma NfL; CIDP + AAT, day 35",significant decrease
same,Plasma NfL concentration (Mean ± SD),plasma NfL; Day 1,0.29 ± 0.11 ng/mL
same,Plasma NfL concentration (Mean ± SD),plasma NfL; Day 20,3.12 ± 0.86 ng/mL
same,Plasma NfL concentration (Mean ± SD),plasma NfL; Day 35,2.30 ± 0.27 ng/mL
same,"NfL conc, group MEAN",plasma NfL; Day 1,0.29 ng/mL
same,"NfL conc, group MEAN",plasma NfL; Day 20,3.12 ng/mL
same,"NfL conc, group MEAN",plasma NfL; Day 35,2.30 ng/mL
same,NfL conc,plasma NfL; Day 1 (before model induction),0.3654 ng/mL and 0.2865 ng/mL and 0.3798 ng/mL and 0.1412 ng/mL
same,NfL conc,plasma NfL; Day 20 (before compound treatment),3.7596 ng/mL and 2.7654 ng/mL and 3.8846 ng/mL and 2.0831 ng/mL
same,NfL conc,plasma NfL; Day 35,2.4447 ng/mL and 1.9017 ng/mL and 2.3497 ng/mL and 2.5056 ng/mL
same,Plasma IL-6 (Mean ± SD),plasma IL-6; [3],133.48 ± 31.45 pg/mL
same,Plasma IL-6 (Mean ± SD),plasma IL-6; [4],69.78 ± 11.76 pg/mL
same,positive effect on IL-6 plasma levels,"plasma IL-6; 12 weeks of age, after 2-week treatment-free period",remained significant
same,Plasma IL-6 (Mean ± SD),plasma IL-6; [5],120.90 ± 6.47 pg/mL
same,plasma levels of IL-6,"plasma IL-6; CMT mice, AAT 90 mg/kg sc twice a day, P<0.01",reduced
